Patent US6355811B1, “Polyoxypropylenepolyethylene vitamin E and preparation thereof” (priority 1998, dated 2002)

Legend:
[1] = Anti-oxidation activity: peroxide value of linoleic acid with added sample; details: sample 0.5% in linoleic acid, stored at 40° C.
Description: An examination was made of the anti-oxidation activity of the polyoxypropylenepolyoxyethylene vitamin E, using linoleic acid. The linoleic acid used was a reagent purchased from Sigma, U.S.A., comprising linoleic acid 75% and linolenic acid 12.5%.
The polyoxypropylenepolyoxyethylene vitamin E(1) prepared in Example I was added at an amount of 0.5% in the linoleic acid while vitamin E, vitamin E acetate, polyoxyethylene (12EO) vitamin E, polyoxyethylene (20EO) sorbitan monostearate (TWEEN-60), and polyoxyethylene (12EO) nonylphenylether (Igepal-CO880) were also used as references. These samples were stored in an incubator maintained at 40° C. At two days and ten days after the incubation, a peroxide value was determined for each sample. In detail, in a 250 ml Erlenmeyer flask was placed 1.0 g of each of the samples, and 10 ml of chloroform were added to dissolve the sample, after which 15 ml of glacial acetic acid and 1 ml of saturated potassium iodide solution were added and a stopper was put in the flask. After being vigorously shaken, the flask was allowed to stand in a dark place for 5 min. Thereafter, the flask was added with 75 ml of distilled water and vigorously shaken. Free iodine was titrated with a 0.01 N sodium thiosulfate solution, using a starch solution as an indicator. The point at which the solution became colorless was regarded as the end point. The peroxide value was calculated as follows: [formula]
S: Amount of 0.01 N sodium thiosulfate solution consumed by sample (ml)
B: Amount of 0.01 N sodium thiosulfate solution consumed in blank test tube (ml)
F: Factor of 0.01 N sodium thiosulfate solution

rabbits = assay: Primary eye irritation test according to Draize; assay type: in vivo
Description: In order to evaluate the safety of the novel polyoxypropylenepolyoxyethylene vitamin E, a primary eye irritation test was conducted on rabbits as taught by Draize. The polyoxypropylenepolyoxyethylene vitamin E (5) prepared in Example V, polyoxyethylene (12EO) nonylphenylether and polyoxyethylene (20EO) sorbitan monostearate each was diluted with a 10% aqueous glycerine solution to give a 10% sample solution. This test sample was dropped onto one eye of each of 6 rabbits weighing 2-3 kg while the other eye was used as a control. 24 hours later, the average scores were recorded according to the Draize scoring for ocular lesions. If lesions were present, the time was extended; otherwise, observation was ceased.

human body = assay: Patch test, Finn Chamber method; assay type: in vivo; details: human brachium, ICDRG standard
Description: In order to confirm non-toxicity of the polyoxypropylenepolyoxyethylene vitamin E according to the present invention, a patch test was conducted on the human body according to the Finn Chamber method. The subjects of this test were all females 15-35 years old. A sample material was dropped onto the brachium of each of the subjects and a dermicel tape was bonded thereto. The skin irritations were evaluated as a response rate (%) according to an International Contact Dermatitis Research Group (ICDRG) standard after 24 or 48 hour.

[2] = Surface tension by the du Nuoy method; assay type: physicochemical; details: 0.1% aqueous solution, 20° C.
Description: At 20° C., 0.1% solutions of samples in water were measured for surface tension according to the du Nuoy method with the aid of a surface tension balance manufactured by Fisher Scientific.

[3] = Foaming ability and foam stability, dynamic foam test; assay type: physicochemical; details: 20° C.; for Foam Stability: 0.1% solution in water, foam at three minutes after stirring; for Foaming Ability: 0.1% solution in water, 1,000 rpm, 1 min
Description: The foaming ability and foam stability were determined according to a dynamic foam test. First, in a 2 L scaled cylinder with an inner diameter of 10 cm were charged 40 ml of a 0.1% solution of each sample in water and the solution was stirred at 1,000 rpm 20° C. for 1 min with an agimixer. The height of the foam layer thus formed was regarded as foaming ability while the ratio of the volume of the foam layer formed immediately after the stirring to the same maintained at three minutes after the stirring, was denoted as foam stability.

Row | Compound | Response Rate, 24 h (human body) [%] | Response Rate, 48 h (human body) [%] | Surface Tension [2] [dyne/cm] | Foam Stability [3] [%] | Foaming Ability [3] [cc] | Peroxide Values After 2 days [1] | Peroxide Values After 10 days [1] | Eye irritation, Avg. Values (Draize scoring for ocular lesions) (rabbits; rabbit, in vivo) | Eye irritation, Avg. Values (Draize scoring for ocular lesions) (rabbits; 10% sample solution in 10% aqueous glycerine, rabbit eye, 24 hours)
1 | CC(=O)Oc1c(C)c(C)c2c(c1C)CCC(C)(CCC[C@H](C)CCC[C@H](C)CCCC(C)C)O2 (stereo partly shown) [Acetate of vitamin E, vitamin E acetate] |  |  |  |  |  | 27.2 | 123.3 |  | 
2 | polyoxyethylene (12EO) nonylphenylether [12EO nonylphenylether] | 2.4 | 2.0 |  |  |  | 28.9 | 178.5 | 0.35 | 
3 | polyoxyethylene (12EO) vitamin E [12EO vitamin E] | 1.6 | 0.8 | 56.3 | 46.5 | 125 | 26.0 | 124.6 | 0.19 | 
4 | vitamin E |  |  |  |  |  | 21.6 | 58.9 |  | 

Now from value to compound, other results behind:

Row | Response Rate, 24 h (human body) [%] | Response Rate, 48 h (human body) [%] | Surface Tension [2] [dyne/cm] | Foam Stability [3] [%] | Foaming Ability [3] [cc] | Compound | Peroxide Values After 2 days [1] | Peroxide Values After 10 days [1] | Eye irritation, Avg. Values (Draize scoring for ocular lesions) (rabbits; rabbit, in vivo) | Eye irritation, Avg. Values (Draize scoring for ocular lesions) (rabbits; 10% sample solution in 10% aqueous glycerine, rabbit eye, 24 hours)
5 | 0.6 | 0.0 |  |  |  | polyoxyethylene (20EO) sorbitan monostearate [20EO sorbitan mono stearate] | 25.0 | 126.6 |  | 0.16
6 |  |  | 38.4 | 89.6 | 246 | polyoxyethylene (24EO) cholesterol [24 EO Cholesterol] |  |  |  | 
